# Test results reported in PMC7933434, “Entropy-driven binding of gut bacterial β-glucuronidase inhibitors ameliorates irinotecan-induced toxicity” (Communications Biology, 2021).
# “And” between values parts separate entries of the source, which are not always exact repeats. Equal entries are not always repeated.
# Legend:
# [1] = design: method as in PMID 18537837; conditions: endocyclic amine; cited from earlier work
# [2] = target: T1, HsGUS (human GUS) (Homo sapiens, UniProt P08236); assay: GUS inhibition assay, hydrolysis of 4-methylumbelliferyl-β-glucuronide, HsGUS; type: biochemical; design: GUS activity (hydrolysis rate of MUG): unit not given here; conditions: for Ki: HsGUS
# T1 construct: HsGUS was prepared as described[37]; made in house
# T1 sequence (P08236 23-651): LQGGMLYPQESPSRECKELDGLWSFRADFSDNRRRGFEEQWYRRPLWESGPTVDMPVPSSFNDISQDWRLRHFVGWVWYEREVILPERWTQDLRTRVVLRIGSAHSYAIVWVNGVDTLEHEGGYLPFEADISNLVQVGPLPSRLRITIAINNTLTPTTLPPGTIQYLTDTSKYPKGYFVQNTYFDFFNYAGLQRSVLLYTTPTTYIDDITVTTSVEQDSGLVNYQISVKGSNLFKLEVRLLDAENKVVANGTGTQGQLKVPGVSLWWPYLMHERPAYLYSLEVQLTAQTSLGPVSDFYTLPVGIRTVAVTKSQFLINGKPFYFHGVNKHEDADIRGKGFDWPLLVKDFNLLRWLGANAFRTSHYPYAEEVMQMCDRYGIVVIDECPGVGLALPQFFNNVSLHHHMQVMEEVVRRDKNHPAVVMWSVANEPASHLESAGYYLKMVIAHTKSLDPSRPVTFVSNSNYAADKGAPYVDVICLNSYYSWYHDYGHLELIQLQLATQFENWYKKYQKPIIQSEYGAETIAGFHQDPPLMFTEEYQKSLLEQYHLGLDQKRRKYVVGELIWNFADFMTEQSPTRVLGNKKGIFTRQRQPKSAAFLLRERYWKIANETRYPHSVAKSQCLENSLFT
# [3] = target: BdGUS (Bifidobacterium dentium, UniProt D2Q7B1); assay: biochemical; type: binding; conditions: BdGUS; Tris buffer (250 mM NaCl, 20 mM Tris, pH 8.0); 298 K
# Chain of BdGUS (D2Q7B1 entry or part of it): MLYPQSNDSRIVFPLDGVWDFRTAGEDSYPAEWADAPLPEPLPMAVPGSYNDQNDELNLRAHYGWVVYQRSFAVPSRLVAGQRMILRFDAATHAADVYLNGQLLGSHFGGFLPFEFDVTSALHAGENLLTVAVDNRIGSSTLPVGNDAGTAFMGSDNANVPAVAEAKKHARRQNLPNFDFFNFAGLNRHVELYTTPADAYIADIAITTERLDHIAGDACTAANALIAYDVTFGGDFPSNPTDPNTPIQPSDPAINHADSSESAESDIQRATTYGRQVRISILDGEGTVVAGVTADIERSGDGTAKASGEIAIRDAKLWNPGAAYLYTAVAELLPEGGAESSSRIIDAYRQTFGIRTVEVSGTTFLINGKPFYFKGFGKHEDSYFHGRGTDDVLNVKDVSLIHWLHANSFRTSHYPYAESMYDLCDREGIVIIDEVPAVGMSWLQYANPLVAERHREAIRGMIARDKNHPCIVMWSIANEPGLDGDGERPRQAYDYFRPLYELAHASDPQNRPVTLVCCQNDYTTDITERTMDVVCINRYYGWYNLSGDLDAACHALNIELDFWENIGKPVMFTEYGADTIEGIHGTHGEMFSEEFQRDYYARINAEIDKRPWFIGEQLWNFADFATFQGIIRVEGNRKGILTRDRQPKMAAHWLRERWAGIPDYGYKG
structure (smiles),measurement,setting,value
"O=C(O)[C@H]1CNC[C@@H](O)[C@@H]1O [Inhibitor 1, Uronic isofagomine]",pKa,[1],8.0
same,Ki,[2],180 nM
same,Ki,"[2]; 50 mM sodium acetate pH 4.5, 37 °C",180 ± 2 nM
same,GUS activity (hydrolysis rate of MUG),"[2]; [Inhibitor 1] =6.25 nM, [MUG] 0.1 mM",1052.77 and 919.367
same,GUS activity (hydrolysis rate of MUG),"[2]; [Inhibitor 1] =6.25 nM, [MUG] 0.2 mM",1682.62 and 1656.5
same,GUS activity (hydrolysis rate of MUG),"[2]; [Inhibitor 1] =6.25 nM, [MUG] 0.4 mM",2736.45 and 2863.61
same,GUS activity (hydrolysis rate of MUG),"[2]; [Inhibitor 1] =6.25 nM, [MUG] 0.6 mM",3626.7 and 3614.16
same,GUS activity (hydrolysis rate of MUG),"[2]; [Inhibitor 1] =6.25 nM, [MUG] 0.8 mM",4294.49 and 4051.74
same,GUS activity (hydrolysis rate of MUG),"[2]; [Inhibitor 1] =6.25 nM, [MUG] 1.2 mM",5041.75 and 5285.84
same,GUS activity (hydrolysis rate of MUG),"[2]; [Inhibitor 1] =6.25 nM, [MUG] 1.6 mM",5716.1 and 5569.72
same,GUS activity (hydrolysis rate of MUG),"[2]; [Inhibitor 1] =6.25 nM, [MUG] 2 mM",6253.7 and 6084.56
same,GUS activity (hydrolysis rate of MUG),"[2]; [Inhibitor 1] =12.5 nM, [MUG] 0.1 mM",964.973 and 946.536
same,GUS activity (hydrolysis rate of MUG),"[2]; [Inhibitor 1] =12.5 nM, [MUG] 0.2 mM",1634.13 and 1650.2
same,GUS activity (hydrolysis rate of MUG),"[2]; [Inhibitor 1] =12.5 nM, [MUG] 0.4 mM",2735.98 and 2661.78
same,GUS activity (hydrolysis rate of MUG),"[2]; [Inhibitor 1] =12.5 nM, [MUG] 0.6 mM",3585.06 and 3536.5
same,GUS activity (hydrolysis rate of MUG),"[2]; [Inhibitor 1] =12.5 nM, [MUG] 0.8 mM",4058.66 and 4004.34
same,GUS activity (hydrolysis rate of MUG),"[2]; [Inhibitor 1] =12.5 nM, [MUG] 1.2 mM",4753.61 and 4787.97
same,GUS activity (hydrolysis rate of MUG),"[2]; [Inhibitor 1] =12.5 nM, [MUG] 1.6 mM",5496.19 and 5468.5
same,GUS activity (hydrolysis rate of MUG),"[2]; [Inhibitor 1] =12.5 nM, [MUG] 2 mM",6215.35 and 6326.21
same,GUS activity (hydrolysis rate of MUG),"[2]; [Inhibitor 1] =25 nM, [MUG] 0.1 mM",888.487 and 880.944
same,GUS activity (hydrolysis rate of MUG),"[2]; [Inhibitor 1] =25 nM, [MUG] 0.2 mM",1602.44 and 1479.41
same,GUS activity (hydrolysis rate of MUG),"[2]; [Inhibitor 1] =25 nM, [MUG] 0.4 mM",2621.31 and 2595.47
same,GUS activity (hydrolysis rate of MUG),"[2]; [Inhibitor 1] =25 nM, [MUG] 0.6 mM",3374.76 and 3226.51
same,GUS activity (hydrolysis rate of MUG),"[2]; [Inhibitor 1] =25 nM, [MUG] 0.8 mM",3934.08 and 3700.76
same,GUS activity (hydrolysis rate of MUG),"[2]; [Inhibitor 1] =25 nM, [MUG] 1.2 mM",4557.18 and 4846.86
same,GUS activity (hydrolysis rate of MUG),"[2]; [Inhibitor 1] =25 nM, [MUG] 1.6 mM",5394.55 and 5298.67
same,GUS activity (hydrolysis rate of MUG),"[2]; [Inhibitor 1] =25 nM, [MUG] 2 mM",6010.34 and 6068.98
same,GUS activity (hydrolysis rate of MUG),"[2]; [Inhibitor 1] =50 nM, [MUG] 0.1 mM",874.409 and 866.834
same,GUS activity (hydrolysis rate of MUG),"[2]; [Inhibitor 1] =50 nM, [MUG] 0.2 mM",1446.88 and 1448.8
same,GUS activity (hydrolysis rate of MUG),"[2]; [Inhibitor 1] =50 nM, [MUG] 0.4 mM",2554.3 and 2362.71
same,GUS activity (hydrolysis rate of MUG),"[2]; [Inhibitor 1] =50 nM, [MUG] 0.6 mM",3157.04 and 3034.34
same,GUS activity (hydrolysis rate of MUG),"[2]; [Inhibitor 1] =50 nM, [MUG] 0.8 mM",3775.39 and 3558.36
same,GUS activity (hydrolysis rate of MUG),"[2]; [Inhibitor 1] =50 nM, [MUG] 1.2 mM",4410.62 and 4573.1
same,GUS activity (hydrolysis rate of MUG),"[2]; [Inhibitor 1] =50 nM, [MUG] 1.6 mM",4956.91 and 5204.72
same,GUS activity (hydrolysis rate of MUG),"[2]; [Inhibitor 1] =50 nM, [MUG] 2 mM",5814.43 and 5846.27
same,GUS activity (hydrolysis rate of MUG),"[2]; [Inhibitor 1] =100 nM, [MUG] 0.1 mM",714.467 and 698.837
same,GUS activity (hydrolysis rate of MUG),"[2]; [Inhibitor 1] =100 nM, [MUG] 0.2 mM",1267.32 and 1255.83
same,GUS activity (hydrolysis rate of MUG),"[2]; [Inhibitor 1] =100 nM, [MUG] 0.4 mM",2205.11 and 2224.51
same,GUS activity (hydrolysis rate of MUG),"[2]; [Inhibitor 1] =100 nM, [MUG] 0.6 mM",2972.37 and 2813
same,GUS activity (hydrolysis rate of MUG),"[2]; [Inhibitor 1] =100 nM, [MUG] 0.8 mM",3383.16 and 3413.02
same,GUS activity (hydrolysis rate of MUG),"[2]; [Inhibitor 1] =100 nM, [MUG] 1.2 mM",4189.2 and 4174.02
same,GUS activity (hydrolysis rate of MUG),"[2]; [Inhibitor 1] =100 nM, [MUG] 1.6 mM",4730.59 and 4939.86
same,GUS activity (hydrolysis rate of MUG),"[2]; [Inhibitor 1] =100 nM, [MUG] 2 mM",5626.48 and 5332.35
same,GUS activity (hydrolysis rate of MUG),"[2]; [Inhibitor 1] =200 nM, [MUG] 0.1 mM",493.269 and 528.779
same,GUS activity (hydrolysis rate of MUG),"[2]; [Inhibitor 1] =200 nM, [MUG] 0.2 mM",887.805 and 953.041
same,GUS activity (hydrolysis rate of MUG),"[2]; [Inhibitor 1] =200 nM, [MUG] 0.4 mM",1572.94 and 1681.59
same,GUS activity (hydrolysis rate of MUG),"[2]; [Inhibitor 1] =200 nM, [MUG] 0.6 mM",2196.34 and 2140.47
same,GUS activity (hydrolysis rate of MUG),"[2]; [Inhibitor 1] =200 nM, [MUG] 0.8 mM",2605.47 and 2684.29
same,GUS activity (hydrolysis rate of MUG),"[2]; [Inhibitor 1] =200 nM, [MUG] 1.2 mM",3423.7 and 3486.94
same,GUS activity (hydrolysis rate of MUG),"[2]; [Inhibitor 1] =200 nM, [MUG] 1.6 mM",4057.78 and 4000.72
same,GUS activity (hydrolysis rate of MUG),"[2]; [Inhibitor 1] =200 nM, [MUG] 2 mM",4782.69 and 4439.05
same,Kd,[3],300 ± 60 nM
same,ΔG,[3],–8.91 ± 0.13 kcal/mol
same,ΔH,[3],–10.47 kcal/mol
same,—TΔS,[3],1.56 ± 0.37 kcal/mol
